Assay results reported in US20150231147A1, “METHODS FOR ACUTE AND LONG-TERM TREATMENT OF DRUG ADDICTION” (DemeRx, Inc., priority 2014, published 2015).
Like-named read-outs stand apart in the source and are kept apart here.

Tests used:
[1] = system: opioid-dependent participants; assay: Treatment emergent adverse events in opioid-dependent participants; assay type: in vivo, human; details: opioid-dependent patients
Method: (§1) The efficacy of noribogaine in humans was evaluated in opioid-dependent participants in a randomized, placebo-controlled, double-blind trial. […] See U.S. application Ser. No. 14/214,157, filed Mar. 14, 2014 and Ser. No. 14/346,655, filed Mar. 21, 2014, which are incorporated herein by reference in their entireties.
(§2) Three cohorts of nine (9) subjects (6 administered noribogaine and 3 administered placebo in each cohort) were evaluated for tolerability, pharmacokinetics, and efficacy. Cohort 1 received a single dose of 60 mg noribogaine or placebo. Cohort 2 received a single dose of 120 mg noribogaine or placebo. Cohort 3 received a single dose of 180 mg noribogaine or placebo.

[2] = Serum noribogaine pharmacokinetics in patients, Phase IB study; assay type: in vivo, human; details: for Vd/F / AUC(0-t) / Cmax / Tmax / AUC / half-life: human, serum, opioid-dependent patients, mean ± SD; for Vd/F: unit inferred; for AUC: read-out: AUC(0-¥)
Method: as §1, §2

## CC[C@H]1CC2C[C@H]3c4[nH]c5ccc(O)cc5c4CCN(C2)C13 [Noribogaine]
[1]; single 60 mg dose (N = 6)
  Treatment emergent AEs: Catheter Site Infection: 0
  Treatment emergent AEs: Catheter Site Pain: 0
  Treatment emergent AEs: Catheter Site Related Reaction: 0
  Treatment emergent AEs: Cellulitis: 0
  Treatment emergent AEs: Diarrhoea: 0
  Treatment emergent AEs: Dry Mouth: 0
  Treatment emergent AEs: Ear and Labyrinth Disorders: 0
  Treatment emergent AEs: Epistaxis: 0
  Treatment emergent AEs: Euphoric Mood: 0
  Treatment emergent AEs: General Disorders and Administration Site Conditions: 0
  Treatment emergent AEs: Hyperaesthesia: 0
  Treatment emergent AEs: Infections and Infestations: 0
  Treatment emergent AEs: Limb Discomfort: 0
  Treatment emergent AEs: Malaise: 0
  Treatment emergent AEs: Nausea: 0
  Treatment emergent AEs: Oropharyngeal Pain: 0
  Treatment emergent AEs: Pseudoparalysis: 0
  Treatment emergent AEs: Respiratory, Thoracic and Mediestinal Disorders: 0
  Treatment emergent AEs: Rhinorrhoea: 0
  Treatment emergent AEs: Skin Discomfort: 0
  Treatment emergent AEs: Skin Irritation: 0
  Treatment emergent AEs: Skin and Subcutaneous Tissue Disorders: 0
  Treatment emergent AEs: Somnolence: 0
  Treatment emergent AEs: Tinnitus: 0
  Treatment emergent AEs: Tremor: 0
  Treatment emergent AEs: Urinary Tract Infection: 0
  Treatment emergent AEs: Vomiting: 0
[1]; single 120 mg dose (N = 6)
  Treatment emergent AEs: Back pain: 0
  Treatment emergent AEs: Catheter Site Infection: 0
  Treatment emergent AEs: Catheter Site Related Reaction: 0
  Treatment emergent AEs: Depressed Mood: 0
  Treatment emergent AEs: Dry Eye: 0
  Treatment emergent AEs: Dyspepsia: 0
  Treatment emergent AEs: Euphoric Mood: 0
  Treatment emergent AEs: Limb Discomfort: 0
  Treatment emergent AEs: Malaise: 0
  Treatment emergent AEs: Musculoskeletal and Connective Tissue Disorders: 0
  Treatment emergent AEs: Psychiatric Disorders: 0
  Treatment emergent AEs: Somnolence: 0
  Treatment emergent AEs: Urinary Tract Infection: 0
[1]; single 180 mg dose (N = 6)
  Treatment emergent AEs: Catheter Site Infection: 0
  Treatment emergent AEs: Catheter Site Pain: 0
  Treatment emergent AEs: Depressed Mood: 0
  Treatment emergent AEs: Diarrhoea: 0
  Treatment emergent AEs: Dry Eye: 0
  Treatment emergent AEs: Dyspepsia: 0
  Treatment emergent AEs: Ear and Labyrinth Disorders: 0
  Treatment emergent AEs: Epistaxis: 0
  Treatment emergent AEs: Euphoric Mood: 0
  Treatment emergent AEs: Hyperaesthesia: 0
  Treatment emergent AEs: Malaise: 0
  Treatment emergent AEs: Oropharyngeal Pain: 0
  Treatment emergent AEs: Pseudoparalysis: 0
  Treatment emergent AEs: Psychiatric Disorders: 0
  Treatment emergent AEs: Respiratory, Thoracic and Mediestinal Disorders: 0
  Treatment emergent AEs: Rhinorrhoea: 0
  Treatment emergent AEs: Skin Discomfort: 0
  Treatment emergent AEs: Skin Irritation: 0
  Treatment emergent AEs: Skin and Subcutaneous Tissue Disorders: 0
  Treatment emergent AEs: Somnolence: 0
  Treatment emergent AEs: Tinnitus: 0
  Treatment emergent AEs: Tremor: 0
[1]; single 60, 120 or 180 mg dose
  adverse effects observed: Few adverse effects
  hallucinatory effects: no hallucinatory effects
[2]; 60, 120, 180 mg cohorts
  dose dependence of maximum serum concentration (Cmax): increased in a dose-dependent manner
[2]; Cohort 2 (120 mg)
  Vd/F: 2110 ± 1640 L
  AUC(0-t): 3230 ± 1540 ng·h/mL
  Cmax: 173 ± 30.7 ng/mL
  Tmax: 2.99 ± 1.23 h
  half-life: 30.4 ± 9.14 h
  AUC: 3280 ± 1580 ng·h/mL
[2]; Cohort 3 (180 mg)
  Vd/F: 1030 ± 365 L
  AUC(0-t): 6520 ± 2910 ng·h/mL
  Cmax: 268 ± 46.9 ng/mL
  Tmax: 4.41 ± 1.8 h
  half-life: 23.9 ± 5.54 h
  AUC: 6890 ± 3490 ng·h/mL
[2]; Cohort 1 (60 mg)
  AUC(0-t): 2020 ± 614 ng·h/mL
  Cmax: 81.6 ± 23.8 ng/mL
  Tmax: 3.59 ± 0.92 h
  AUC: 2060 ± 609 ng·h/mL
